Biological target: T1, IRAK4 (Homo sapiens, UniProt Q9NWZ3)
T1 construct: 293Tcells expressing HiBiT-tagged IRAK4 were then added into 384-well plates
T1 sequence (Q9NWZ3 1-460): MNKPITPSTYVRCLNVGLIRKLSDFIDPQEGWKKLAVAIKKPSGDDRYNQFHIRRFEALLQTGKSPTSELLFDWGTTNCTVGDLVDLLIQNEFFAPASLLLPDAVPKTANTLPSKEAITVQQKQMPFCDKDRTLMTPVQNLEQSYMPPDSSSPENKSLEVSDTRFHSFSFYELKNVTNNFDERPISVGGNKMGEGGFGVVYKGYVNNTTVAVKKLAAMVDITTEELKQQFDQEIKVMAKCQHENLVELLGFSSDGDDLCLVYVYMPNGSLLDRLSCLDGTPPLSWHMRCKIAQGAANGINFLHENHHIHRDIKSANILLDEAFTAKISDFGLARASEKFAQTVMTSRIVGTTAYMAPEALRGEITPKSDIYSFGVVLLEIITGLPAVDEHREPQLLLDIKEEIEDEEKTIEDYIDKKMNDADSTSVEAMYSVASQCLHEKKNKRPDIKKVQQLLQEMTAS
Experiment: IRAK4 Degradation Assay, HiBiT Method
Assay type: cell-based
Conditions: 293T cells expressing HiBiT-tagged IRAK4, 6 hours
Procedure, shortened: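 293T cells with HiBiT knocked in at the C-terminus of endogenous IRAK4, 10,000 per well, treated 6 h at 37 °C with an 11-point half-log series ([…]), in duplicate. Remaining IRAK4 read by Nano-Glo HiBiT lytic luminescence against DMSO-only and media-only controls.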

Structure (SMILES) | DC50 [nM]
CC(C)Oc1cc2nc(C3CCN(CC(=O)N4CC5(C4)CN(c4ccc(C6CCC(=O)NC6=O)cc4)C5)CC3)cn2cc1C(=O)Nc1cccc(C(F)F)n1 (stereo not drawn) [Example 110, N-[6-(difluoromethyl)-2-pyridyl]-2-[1-[2-[6-[4-(2,6-dioxo-3-piperidyl)phenyl]-2,6-diazaspiro[3.3]heptan-2-yl]-2-oxo-ethyl]-4-piperidyl]-7-isopropoxy-imidazo[1,2-a]pyridine-6-carboxamide] | 10 to 100
CC(C)Oc1cc2nc(C3CCN(CC(F)=C4CCN(c5ccc(NC6CCC(=O)NC6=O)cc5)CC4)CC3)cn2cc1C(=O)Nc1cccc(C(F)F)n1 (stereo not drawn) [Example 111, N-(6-(difluoromethyl)pyridin-2-yl)-2-(1-(2-(1-(4-((2,6-dioxopiperidin-3-yl)amino)phenyl)piperidin-4-ylidene)-2-fluoroethyl)piperidin-4-yl)-7-isopropoxyimidazo[1,2-a]pyridine-6-carboxamide] | 10 to 100
CC(C)Oc1cc2nc(C3CCN(CC(F)=C4CCN(c5ncc(C6CCC(=O)NC6=O)cc5F)CC4)CC3)cn2cc1C(=O)Nc1cccc(C(F)F)n1 (stereo not drawn) [Example 112, N-[6-(difluoromethyl)-2-pyridyl]-2-[1-[2-[1-[5-(2,6-dioxo-3-piperidyl)-3-fluoro-2-pyridyl]-4-piperidylidene]-2-fluoro-ethyl]-4-piperidyl]-7-isopropoxy-imidazo[1,2-a]pyridine-6-carboxamide] | 10 to 100
CC(C)Oc1cc2nn([C@H]3CC[C@H](CN4CC[C@H](c5ccc6c(N7CCC(=O)NC7=O)nn(C)c6c5)[C@H](O)C4)CC3)cc2cc1C(=O)Nc1cccn(C2C[C@H]2F)c1=O (stereo partly drawn) [Example 116, 2-((1S,4S)-4-(((3S,4R)-4-(3-(2,4-dioxotetrahydropyrimidin-1(2H)-yl)-1-methyl-1H-indazol-6-yl)-3-hydroxypiperidin-1-yl)methyl)cyclohexyl)-N-(1-((1S,2R)-2-fluorocyclopropyl)-2-oxo-1,2-dihydropyridin-3-yl)-6-isopropoxy-2H-indazole-5-carboxamide] | < 10
CC(C)Oc1cc2nn([C@H]3CC[C@H](CN4CC5(CCN(c6ncc(C7CCC(=O)NC7=O)cc6F)CC5)C4)CC3)cc2cc1C(=O)Nc1cnn2cccnc12 (stereo partly drawn) [Example 117, 2-((1r,4r)-4-((7-(5-(2,6-dioxopiperidin-3-yl)-3-fluoropyridin-2-yl)-2,7-diazaspiro[3.5]nonan-2-yl)methyl)cyclohexyl)-6-isopropoxy-N-(pyrazolo[1,5-a]pyrimidin-3-yl)-2H-indazole-5-carboxamide] | < 10
CC(C)Oc1cc2nn([C@H]3CC[C@H](CN4CCCC(c5ccc(OC6CCC(=O)NC6=O)cc5)C4)CC3)cc2cc1C(=O)Nc1cccn(C2CC2)c1=O (stereo partly drawn) [Example 118, N-(1-cyclopropyl-2-oxo-1,2-dihydropyridin-3-yl)-2-((1r,4r)-4-((3-(4-((2,6-dioxopiperidin-3-yl)oxy)phenyl)piperidin-1-yl)methyl)cyclohexyl)-6-isopropoxy-2H-indazole-5-carboxamide] | 10 to 100
CC(C)Oc1cc2nn([C@H]3CC[C@H](CN4CCN(c5ncc(C6CCC(=O)NC6=O)cc5F)CC(O)C4)CC3)cc2cc1C(=O)Nc1cccn([C@H]2C[C@H]2F)c1=O (stereo partly drawn) [Example 119, 2-((1r,4S)-4-((4-(5-(2,6-dioxopiperidin-3-yl)-3-fluoropyridin-2-yl)-6-hydroxy-1,4-diazepan-1-yl)methyl)cyclohexyl)-N-(1-((1S,2R)-2-fluorocyclopropyl)-2-oxo-1,2-dihydropyridin-3-yl)-6-isopropoxy-2H-indazole-5-carboxamide] | < 10
CC(C)Oc1cc2nn([C@H]3CC[C@H](CN4CC5(CCN(c6ncc(C7CCC(=O)NC7=O)cc6F)CC5)C4)CC3)cc2cc1C(=O)Nc1cccn(C2CC2)c1=O (stereo partly drawn) [Example 124, N-(1-cyclopropyl-2-oxo-1,2-dihydropyridin-3-yl)-2-((r,4r)-4-((7-(5-(2,6-dioxopiperidin-3-yl)-3-fluoropyridin-2-yl)-2,7-diazaspiro[3.5]nonan-2-yl)methyl)cyclohexyl)-6-isopropoxy-2H-indazole-5-carboxamide] | < 10
CC(C)Oc1cc2nn([C@H]3CC[C@H](CN4CC5(C4)CN(c4ncc(C6CCC(=O)NC6=O)cc4F)C5)CC3)cc2cc1C(=O)Nc1cccn([C@H]2C[C@H]2F)c1=O (stereo partly drawn) [Example 126, 2-((1r,4S)-4-((6-(5-(2,6-dioxopiperidin-3-yl)-3-fluoropyridin-2-yl)-2,6-diazaspiro[3.3]heptan-2-yl)methyl)cyclohexyl)-N-(1-((1S,2R)-2-fluorocyclopropyl)-2-oxo-1,2-dihydropyridin-3-yl)-6-isopropoxy-2H-indazole-5-carboxamide] | < 10
CC(C)Oc1cc2nn([C@H]3CC[C@H](CN4CCOC[C@H]4Cc4ccc(OC5CCC(=O)NC5=O)cc4)CC3)cc2cc1C(=O)Nc1cccn(C2CC2)c1=O (stereo partly drawn) [Example 127, N-(1-cyclopropyl-2-oxo-1,2-dihydropyridin-3-yl)-2-((S,4r)-4-(((3S)-3-(4-((2,6-dioxopiperidin-3-yl)oxy)benzyl)morpholino)methyl)cyclohexyl)-6-isopropoxy-2H-indazole-5-carboxamide] | 10 to 100

Results, then the molecule that gave them:

DC50 [nM] | Structure (SMILES)
10 to 100 | CC(C)Oc1cc2nc(C3CCN(CC(=O)N4CCC(c5ccc(C6(F)CCC(=O)NC6=O)cc5)CC4)CC3)cn2cc1C(=O)Nc1cccc(C(F)F)n1 (stereo not drawn) [Example 101, N-[6-(difluoromethyl)-2-pyridyl]-2-[1-[2-[4-[4-(3-fluoro-2,6-dioxo-3-piperidyl)phenyl]-1-piperidyl]-2-oxo-ethyl]-4-piperidyl]-7-isopropoxy-imidazo[1,2-a]pyridine-6-carboxamide]
10 to 100 | CC(C)Oc1cc2nc(C3CCN(CC(=O)N4CCC(c5ccc(C6(F)CCC(=O)NC6=O)cc5)CC4)CC3)cn2cc1C(=O)Nc1ccn(C)n1 (stereo not drawn) [Example 102, 2-[1-[2-[4-[4-(3-fluoro-2,6-dioxo-3-piperidyl)phenyl]-1-piperidyl]-2-oxo-ethyl]-4-piperidyl]-7-isopropoxy-N-(1-methylpyrazol-3-yl)imidazo[1,2-a]pyridine-6-carboxamide]
10 to 100 | CC(C)Oc1cc2nc(C3CCN(CC(=O)N4CCC(c5ccc(NC6CCC(=O)NC6=O)cc5)CC4)CC3)cn2cc1C(=O)Nc1cccc(C(F)(F)F)n1 (stereo not drawn) [Example 103, 2-(1-(2-(4-(4-((2,6-dioxopiperidin-3-yl)amino)phenyl)piperidin-1-yl)-2-oxoethyl)piperidin-4-yl)-7-isopropoxy-N-(6-(trifluoromethyl)pyridin-2-yl)imidazo[1,2-a]pyridine-6-carboxamide]
100 to 500 | CC(C)Oc1cc2nc(C3CCN(CC(=O)N4CCC(c5ccc(NC6CCC(=O)NC6=O)cc5)CC4)CC3)cn2cc1C(=O)Nc1cccc(C(F)(F)F)c1 (stereo not drawn) [Example 106, 2-[1-[2-[4-[4-[(2,6-dioxo-3-piperidyl)amino]phenyl]-1-piperidyl]-2-oxo-ethyl]-4-piperidyl]-7-isopropoxy-N-[3-(trifluoromethyl)phenyl]imidazo[1,2-a]pyridine-6-carboxamide]
10 to 100 | CC(C)Oc1cc2nc(C3CCN(CC(=O)N4CCC(c5ccc(NC6CCC(=O)NC6=O)cc5)CC4)CC3)cn2cc1C(=O)Nc1ccccn1 (stereo not drawn) [Example 109, 2-[1-[2-[4-[4-[(2,6-dioxo-3-piperidyl)amino]phenyl]-1-piperidyl]-2-oxo-ethyl]-4-piperidyl]-7-isopropoxy-N-(2-pyridyl)imidazo[1,2-a]pyridine-6-carboxamide]

From patent US20240343733A1, “COMPOUNDS FOR TARGETING DEGRADATION OF IRAK4 PROTEINS” (BIOGEN MA INC., priority 2021, published 2024)
